Test results taken from patent US20200023080A1, “COMPOSITIONS AND METHOD FOR THE TREATMENT AND DETECTION OF COLON CANCER” (priority 2015, published 2020).
Positions of bridges follow the written chain, without caps; N, C: chain ends. Non-standard residues stand in square brackets, D forms with d. No end group written: not given here. IRDye‑680LT = infrared dye IRDye-680LT, conjugated via NHS ester

Assays:
GC-C receptor = GC-C receptor (Homo sapiens, UniProt P25092); details: cited from earlier work
GC-C receptor, sequence (P25092 24-1073): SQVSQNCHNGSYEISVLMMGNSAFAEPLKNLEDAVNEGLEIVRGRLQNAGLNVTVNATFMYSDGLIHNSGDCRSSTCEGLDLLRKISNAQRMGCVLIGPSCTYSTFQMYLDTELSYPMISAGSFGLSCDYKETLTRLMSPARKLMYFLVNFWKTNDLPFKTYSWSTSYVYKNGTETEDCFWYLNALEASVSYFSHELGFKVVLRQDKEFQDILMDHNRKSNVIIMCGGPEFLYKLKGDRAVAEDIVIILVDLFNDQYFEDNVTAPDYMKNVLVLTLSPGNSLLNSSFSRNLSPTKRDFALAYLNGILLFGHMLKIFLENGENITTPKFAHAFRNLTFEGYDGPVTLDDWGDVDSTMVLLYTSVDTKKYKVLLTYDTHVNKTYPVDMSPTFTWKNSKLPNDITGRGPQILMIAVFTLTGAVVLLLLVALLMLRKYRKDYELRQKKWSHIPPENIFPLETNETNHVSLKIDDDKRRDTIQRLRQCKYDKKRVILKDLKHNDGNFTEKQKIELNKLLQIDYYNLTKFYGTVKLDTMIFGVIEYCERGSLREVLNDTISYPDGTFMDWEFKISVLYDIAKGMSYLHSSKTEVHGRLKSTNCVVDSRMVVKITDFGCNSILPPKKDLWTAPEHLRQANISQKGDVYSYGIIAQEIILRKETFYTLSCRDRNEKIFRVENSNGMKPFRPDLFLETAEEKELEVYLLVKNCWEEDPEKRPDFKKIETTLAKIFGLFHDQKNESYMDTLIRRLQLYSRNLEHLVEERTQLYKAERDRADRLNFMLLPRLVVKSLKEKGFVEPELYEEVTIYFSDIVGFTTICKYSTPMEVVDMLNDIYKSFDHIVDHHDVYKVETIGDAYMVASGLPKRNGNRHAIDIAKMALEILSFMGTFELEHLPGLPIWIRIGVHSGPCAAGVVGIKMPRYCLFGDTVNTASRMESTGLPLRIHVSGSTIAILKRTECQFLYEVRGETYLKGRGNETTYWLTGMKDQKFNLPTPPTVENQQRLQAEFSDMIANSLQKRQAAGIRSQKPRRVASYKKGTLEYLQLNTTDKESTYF

[1] = target: T1, GC-C expressed on T84 cells (Homo sapiens, UniProt P25092); assay: Binding of IR680-SP-333 probe to T84 cell monolayer; details: 4° C. for 1 hour, FIG. 3
T1 construct: endogenous in cells; host or cells: T84 human colon carcinoma cells
T1 sequence (P25092 24-1073): as above
Protocol: Experiments were performed to establish binding conditions to reduce background and to enhance specific binding. These experiments concluded that the age of T84 monolayer should be between 7-9 days after seeding to allow maximum expression of GC-C on the cell surface. Next, we established the optimal binding buffer, incubation time to allow binding of probe to T84 cells and temperature of binding incubation to minimize endocytosis. The optimal conditions for specific binding of probe to T84 cells are briefly described here. Human T84 cells were grown to confluence in 96 black clear bottom plates. Media was aspirated and the plate was blocked with 200 ul/well of blocking buffer (DMEM/F12+150 mM NaCl+20 mM Sodium phosphate dibasic, pH was adjusted to 6.0 with 1N HCl) for 2 hours in cell culture incubator at 37° C.

[2] = target: T2, GC-C binding sites on T84 cells (Homo sapiens, UniProt P25092); assay: Binding of IR680-SP-333 probe to suspension of T84 cells; details: 0.5 μM probe, 4° C. for 30 mins, FIG. 4
T2 construct: endogenous in cells; host or cells: T84 human colon carcinoma cells
T2 sequence (P25092 24-1073): as above
Protocol: Next, we performed binding of probe to suspension of T84 cells. In this set of experiments, cells cultured for 9 days in T75 flasks were harvested by scraping and suspended in pre-chilled binding media. Different densities of cells were incubated with […] IR680-SP-333 (final concentration 0.5 μM) in pre-chilled binding buffer at 4° C. for 30 mins. The IR680-SP-333 was diluted with unlabeled SP-333 to adjust the final concentration of probe 0.5 μM. This dilution was necessary to saturate the available GC-C binding sites on 40,000 cells.

[3] = tested on: cGMP production in T84 cells; assay: T84 cGMP bioassay; type: cell-based, Human; details: FIG. 6
[4] = tested on: colonic adenomas in Apc^+/Min-FCCC mice; assay: Ex-vivo imaging of excised colons incubated with probe (IVIS Spectrum); details: 0.1 μM probe; for signal / ability to detect polyps in older mice: 4 and 6 month old mice
Protocol: Ex-vivo and in vivo studies have been performed to evaluate the specificity of the IR680-SP-333 probe for colonic adenomas in Apc^+/Min-FCCC mice. IR680-SP-333 was prepared in DMEM/F-12 media containing 20 mM sodium phosphate buffer and 3% BSA, pH6; the same media used for in vitro experiments. Based on data from an initial pilot study, incubation of tissue with 0.1 μM IR680-SP-333 for 30 min at 37° C. was selected as the optimal condition for ex-vivo studies. Epifluorescence images were acquired as follows: excitation wavelength=640 nm, detection wavelength=700 nm, exposure time=auto-3 min, F-stop=1, binning=1 (“small” setting), field of view=0.3 cm (setting “C”). […] To eliminate the contribution of the age of mouse to the observed heterogeneity in probe binding, an in depth imaging study was performed in mice of various ages (2, 3, 4, 5 and 6 months). In this ex-vivo study, mice were euthanized and colons excised, opened longitudinally, and washed with PBS. Colon tissues were incubated with 0.1 μM IR680-SP-333 at 37° C. for 30 min. After incubation, the tissues were washed with PBS (4 times) and imaged in the IVIS Spectrum, using the settings described above. Careful review of the resulting images lead to three major conclusions: 1) the binding of the IR680-SP-333 probe to colorectal polyps is size dependent. […] 2) because the signal varied with polyp size, binding was enhanced in mice 2-3 months of age where the majority of colorectal polyps were smaller (≤3 mm in diameter) (FIG. 7). As the mice aged, the colorectal polyps increased in size and the ability of probe to detect the polyps decreased (FIG. 8). […] Because the incidence of colorectal polyps is higher in mice 3 months (70%) vs. 2 months (45%) of age, a decision was made to use mice 10-12 weeks of age for all subsequent in vivo IR680-SP-333 analyses to minimize the number of animal that needed to be screened for tumors. 3) signal of the IR680-SP-333 probe was high at the proximal and distal ends of the colon even in the absence of polyps. Similar nonspecific binding of unknown origin has been observed in previous experiments with independent probes at these same extreme regions.

[5] = tested on: colon polyps in Apc^+/Min-FCCC mice; assay: In vivo gavage of probe, imaging of excised colon and histopathology
Protocol: Following the ex-vivo binding studies, an experiment was performed to assess the ability of the probe to remain intact as it passed through the GI tract and bind to colonic lesions. In this in vivo experiment, Apc^+/Min-FCCC mice (10-12 wks of age) were subjected to a colonoscopic examination prior to probe administration, according to a protocol established previously (Hensley, Gastrointestinal Endoscopy group). Mice with confirmed colon polyps were randomized to receive IR680-SP-333 at 0.5 or 0.05 mg/kg body weight by gavage. Prior to probe administration, mice were fasted overnight and provided Pedialyte ad libitum for bowel cleansing. Mice were gavaged with IR680-SP-333 and euthanized at 30, 60, 90 and 120 min post treatment. At the time of euthanasia, the colon was excised, opened its entire length and rinsed with saline. Each colon was then placed on a plastic ruler and imaged in an IVIS Spectrum system using the settings described above for the ex-vivo experiments. Immediately following image acquisition, the entire colon was placed intact on a plastic ruler in 10% normal buffered formalin and areas positive and negative for probe signal were collected for histopathological evaluation. […] Evaluation of additional doses of IR680-SP-333 probe (0.0158 and 0.158 mg/kg body weight) confirmed that gavaging mice with IR680-SP-333 at 0.05 mg/kg body weight and imaging 30 min post treatment yielded the greatest differential in signal between the non-neoplastic and neoplastic colonic mucosa.
Colon tissues with strong signal (tumor) and corresponding background signal (nonneoplastic control) were processed for histopathology evaluation and reviewed bin a blinded manner. […] This heterogeneity made it impossible to standardize the epi-fluorescence scale and classify positive and negative signals based solely on the epi-fluorescence value. […] In FIG. 12 (mouse ID 12201), strong signal is localized to a hyperplastic polyp (HP); an area of high proliferation; providing additional support for the lack of correlation between the intensity of the probe signal and size/type of colonic lesion. […] The probe IR-680-SP-333 may also be useful in detection of colorectal metastasis in liver and other organs.

Asn^1-Asp^2-Asp^3-Cys^4-Glu^5-Leu^6-Cys^7-Val^8-Asn^9-Val^10-Ala^11-Cys^12-Thr^13-Gly^14-Cys^15-Leu^16 (NDDCELCVNVACTGCL; disulfide 4-12, 7-15) [Uroguanylin, a physiological ligand of GC-C, a 16 amino acid peptide with two disulfide bonds]
affinity for the GC-C receptor (GC-C receptor): nanomolar affinity

IR680-SP-333: SP-333 labeled at the amine group with IRDye-680LT NHS ester; bioactive infrared fluorescence probe ({IRDye‑680LT}-[dN]DECELCVNVACTGC[dL]; disulfide 4-12, 7-15)
binding of probe in the presence of 100-fold excess of unlabeled SP-333 [1]: considerably reduced
binding of probe to T84 cells (fluorescence ex680, em715) [1]: specifically bound to GC-C expressed on T84 cells in a dose-dependent manner
binding of probe to cell suspension in the presence of 100-fold excess of SP-333 [2]: abolished
ability to stimulate cGMP production in T84 cells [3]: active
level of cGMP production compared to unconjugated SP-333 [3]: slightly lower level
signal at the proximal and distal ends of the colon in the absence of polyps ([4]; 30 min): high
signal / ability to detect polyps in older mice ([4]; 30 min, FIG. 8): decreased
signal / ability to detect polyps in older mice ([4]; 30 min, FIG. 8, listed as SP-333-IR680): weaker than that observed in younger animals
binding in mice 2-3 months of age ([4]; 30 min, polyps mostly ≤3 mm, FIG. 7): enhanced
binding to colorectal polyps versus surrounding normal colonic mucosa ([4]; 30 min at 37° C.): greater binding to colorectal polyps than to the surrounding normal colonic mucosa
binding to every colorectal polyp ([4]; 30 min at 37° C.): did not bind to every colorectal polyp
probe signal by polyp size ([4]; 30 min at 37° C., FIG. 7): higher in polyps ≤3 mm in diameter than in those with a diameter >4 mm
differential between signal of colorectal polyps and background of adjacent normal colonic mucosa ([5]; gavage 0.05 mg/kg body weight, imaged 30 min post treatment, FIG. 9A): best differential
nonspecific signal at proximal and distal ends of colon ([5]; gavage 0.5 mg/kg body weight, FIG. 9B): increased significantly
differential between tumor and normal tissue at higher dose ([5]; gavage 0.5 mg/kg body weight, FIG. 9B, 0.5 mg/kg): failed to improve the difference in signal between neoplastic and nonneoplastic mucosa significantly
differential between tumor and normal tissue at higher dose ([5]; gavage 0.5 mg/kg body weight, FIG. 9B, listed as SP-333-IR680, 0.5 mg/kg): failed to improve the differential between tumor and normal tissue
nonspecific binding at longer interval between dosing and imaging ([5]; gavage, ≥90 min between dosing and imaging, FIG. 9C): increase in nonspecific binding
correlation of probe signal intensity with tumor size or histological subtype ([5]; histopathology, blinded review): did not correlate with either tumor size or the histological subtype of lesion
probe signal in hyperplastic polyp (HP) ([5]; mouse ID 12201, FIG. 12): strong signal
probe signal in flat/indeterminate adenoma ([5]; mouse ID 12276, FIG. 11): weaker signal
probe signal in small gross lesion (1-mm in size) ([5]; mouse ID 12276, FIG. 11): very strong probe signal
probe signal in adenoma ([5]; mouse ID 12281, FIG. 10): intermediate signal intensity
probe signal in areas of hyperproliferation (HP) ([5]; mouse ID 12281, FIG. 10): strongest probe signal
probe signal in micro-adenoma compared to surrounding normal colonic mucosa ([5]; mouse ID 12281, FIG. 10): slight increase in signal
background signal in normal colonic mucosa ([5]; same dose and same post treatment time interval): varied between mice receiving the same treatment regimen
